Values of other authors in US8512751B2, “Pharmaceutical compositions for sleep disorders” (Collegium Pharmaceutical, Inc., priority 2004, dated 2013).
Where a name gives a salt, the structure may show the parent alone.

How the values were obtained:
sleep apnea [1] = conditions: for effect in individuals with sleep apnea: patients, literature
serotonin uptake = conditions: animal models
[2] = man, single oral 40-mg dose
nocturnal sleep = conditions: healthy adults; 20, 40 and 60 mg
[3] = water and normal saline
[4] = in vivo
sleep apnea [5] = conditions: animal model of sleep apnea

In the case of `CCN1CC(CCN2CCOCC2)C(c2ccccc2)(c2ccccc2)C1=O` (stereo not drawn) [doxapram], the “effect in individuals with sleep apnea” value (sleep apnea [1]) is listed as “decrease the length of apneas but did not alter the average arterial oxygen saturation”.

In the case of `CC(=O)Nc1nnc(S(N)(=O)=O)s1` [acetazolamide], the “effect in individuals with sleep apnea” value (sleep apnea [1]) is listed as “produced variable improvement in individuals with primary central apneas but caused an increase in obstructive apneas”.

In the case of `C=CCN1CC[C@]23c4c5ccc(O)c4O[C@H]2C(=O)CC[C@@]3(O)[C@H]1C5` [naloxone], the “effect in individuals with sleep apnea” value (sleep apnea [1]) is given as “only slightly helpful”.

In the case of `NCC[C@H](Oc1ccc(C(F)(F)F)cc1)c1ccccc1` [S-norfluoxetine], the “inhibition of serotonin uptake, activity relative to fluoxetine” value (serotonin uptake) is given as “essentially equivalent to R- or S-fluoxetine”.

For `Cc1nccn1CC1CCc2c(c3ccccc3n2C)C1=O` (stereo not drawn) [Ondansetron], the “Bioavailability, effect of antacids” value (antacids) is given as “unaffected”, the Mean bioavailability (healthy subjects, single 8-mg tablet) is given as “approximately 56%” and the “radiolabeled dose recovered from the urine as the parent compound” value (humans) is given as “approximately 5%”. For the same molecule, the “AUC from a 16-mg tablet greater than predicted from an 8-mg tablet dose” value (oral tablets) was 24%, the half-life (plasma, humans) was 3 to 5 h and the “Bioavailability, effect of food” value (presence of food) was “slightly enhanced”. The “extent and rate of absorption, gender difference” value (single dose) was “greater in women than men”.

In the case of `CNCCC(Oc1ccc(C(F)(F)F)cc1)c1ccccc1` (stereo not drawn) [fluoxetine], the peak plasma concentrations [2] is listed as 15 to 55 ng/mL, the “time of peak plasma concentrations” value [2] is listed as 6 to 8 h and the “effects on nocturnal sleep” value (nocturnal sleep) is listed as “reduced the total sleep time and the duration of rapid eye movement (REM) sleep and increased awake activity and stage 1 (drowsy) sleep during the night”. The “number of eye movements, EOG and EMG activity on treatment” value (EOG and EMG activity; REM, stages 1, 2, and slow-wave sleep) was “significantly increases the number of eye movements”, the “patients with increased EOG and EMG activity on treatment in every sleep stage” value (EOG and EMG activity; in vivo) was “Thirty-four” and the “individuals with OSAS with measurable benefits” value (sleep apnea [1]; initial evidence) was “approximately 50%”.

For `CNCCCC1c2ccccc2C=Cc2ccccc21` [Protriptyline], the “effect in individuals with sleep apnea” value (sleep apnea [1]) is listed as “variable results and frequent and significant side effects”.

For medroxyprogesterone, the “effect in individuals with sleep apnea” value (sleep apnea [1]) is given as “no consistent benefit in OSAS”.

In the case of `Cn1c(=O)c2[nH]cnc2n(C)c1=O` [theophylline], the “effect in individuals with sleep apnea” value (sleep apnea [1]) is given as “may benefit patients with central apnea but appears to be of no use in adult patients with obstructive apnea”.

For `Cc1nccn1CC1CCc2c(c3ccccc3n2C)C1=O` (racemic) [Ondansetron HCl dihydrate, (±) 1,2,3,9-tetrahydro-9-methyl-3-[(2-methyl-1H-imidazol-1-yl)methyl]-4H-carbazol-4-one, monohydrochloride, dihydrate], the solubility [3] is given as “soluble in water and normal saline”.

For `NCC[C@@H](Oc1ccc(C(F)(F)F)cc1)c1ccccc1` [R-norfluoxetine], the “inhibition of serotonin uptake, activity relative to fluoxetine” value (serotonin uptake) is given as “significantly less potent than the parent drug”.

For `CC1(C)Cc2cc(Cl)cc(C(=O)NC3CC4CCC(C3)[N+]4(C)C)c2O1` (stereo not drawn) [methylated zatosetron], the “ability to cross the blood-brain barrier” value [4] is given as “lack the ability to cross the blood-brain barrier”.

In the case of `Nc1ncnc2c1ncn2[C@@H]1O[C@H](CO)[C@@H](O)[C@H]1O` [adenosine], the reduction of apnea (sleep apnea [5]) is listed as “somewhat effective in reducing apnea”.
